The test system of assay [1] is women with elevated risk to develop preeclampsia. The assay is described as follows: Delivery outcome of high-risk women treated with low dose aspirin. The conditions noted are these: for Outcome: Normal (number of women) / Outcome: Preeclampsia (number of women): 50 treated. The assay is classed as in vivo, human. The procedure: (§1) If in the period specified above a medication is used, it is anticipated that it will bring a woman's PP13 level to the 2nd or 3rd or even the 4th quartile, corresponding to their reduced likelihood of developing preeclampsia. In the example described in Table 2, women with elevated risk to develop preeclampsia were orally treated from GW8 with a dose of […] aspirin (“low dose aspirin”) for either 2 or 3 weeks. […] Accordingly, women who were treated were anticipated to have lower risk to develop preeclampsia and their outcome should also be improved.
(§2) In the study shown in Table 2, of 150 women tested as being at high risk in the 8th week, 50 were not treated, 50 were treated with aspirin for two weeks and 50 were treated for 3 weeks. […] The calculation of their anticipated risk was reduced accordingly.

Assay [2] concerns PP13 release from placenta explants. The assay is described as follows: Therapeutic effectiveness on PP13 release from standardized placenta explants in presence of patient serum (indirect method). The assay is classed as cell-based, human. From the text:
Scenario 1: Simple Direct Tailoring with a Diversity of Drugs. • We have standardized culture conditions for first trimester explants or explants obtained after delivery. • Explants could be the ones made of patients after delivery or those obtained by Chorionic villi sampling (CVS) at gestational weeks 10-12 or other placenta biopsies as the case may be. • Standardization means defined median viability index, protein content in the explant, total protein released to the medium, PP13 content in the explant and PP13 release from the explant, among others. • Drug effect in-vitro is the effect of drug applied to the culture medium on PP13 release from the placenta explant after 24 hr to 7 days. The effect is compared to the baseline release as measured without the drug. • The Therapeutic Index is thus the in-vitro relative effectiveness of the drug when applied to explants as measured by the difference between PP13 release with (PP13D1) and without (PP130) the drug by the equation: (PP130−PP13D1)/PP130, after normalizing to viability, protein content etc as described above, given all other parameters are the same. • It is important to note that in the first trimester (gestational weeks 6-13) PP13 in diseased patient is lower than Normal. Thus the therapeutic index is to return PP13 release is calculated as drugs that elevate PP13 release. In the third trimester (gestational week 26 and above), PP13 is higher in preeclamptic patients than normal. Thus the therapeutic index is decreasing PP13 release back to Normal. • According to the in-vitro therapeutic index one drug or a drug combinations are selected for the in-vivo interventional medication treatment. • Follow up: after selecting the drug to be administrating to the patient, bi-weekly blood testing follow up is recommended to be carried out by measuring the PP13 in the blood and calculating
If so, drugs that appears beneficial to standardized culture explants wouldn't work when applied together with the patient samples. It can be seen that the serum from the patient at high risk for preeclampsia caused serious inhibition of many of the types of treatment.

The next assay has as its system PP13. Briefly: Allocation of high-risk women to serum PP13 quartiles after low dose aspirin. To be noted: for Frequency of 1st quartile cases / Frequency of 2nd quartile cases / Frequency of 3rd quartile cases: high-risk women. The assay is classed as in vivo, human. On the procedure: Unless otherwise indicated, in all experiments, PP13 was measured (blinded to pregnancy outcome) in maternal venous serum by solid-phase sandwich ELISA assay. The PP13 level was calibrated according to standard curves prepared from calibrated standards of recombinant PP13. Concentrations are given in pg PP13/ml serum.
First trimester PP13 could serve as a measure to assess the risk for a later development of preeclampsia. According to FIG. 2 and Table 1, in the first trimester, the majority of the women who will go on to develop preeclampsia have very low levels of PP13 while most women who will have a normal outcome have higher PP13 values. In one study summarized in Table 2 and FIG. 3, the PP13 level was measured at 8 weeks of gestation from 50 cases who went on to develop preeclampsia and in 290 cases with normal outcome. The method of multiples of the gestation-specific median (MoM) was used, and at MoM cutoffs of 0.45, the false positive rate was 10% and the sensitivity 87%. This means that 43 out of 50 preeclampsia cases and 29 out of 290 normal were identified as being at high risk. Thus, while the risk for PP13 in the population is 5%, in the group with PP13 below 0.45, the frequency of preeclampsia was 59% (more than 10 times above the frequency in the population not tested).
Sensitivity and specificity were calculated from the receiver operating characteristic (ROC) analysis based on the indicated MoM cutoffs of 0.45. Sensitivity value is provided in Table 2 in percentile for 10% false positive rate. The odds ratio for developing the pathology was determined by two methods of calculations:
1) modeling, that calculate the Odds ratio as already described above after taking into consideration the prevalence of the pathology in the population, and
2) the quartile assessment procedure, of calculating of the odds ratio for the development of preeclampsia based on the comparison of PP13 in the lowest quartile (25%) versus PP13 in the third quartile (75th percent).
as §1, §2
Sensitivity in percentile values are shown when the specificity was fixed to 90% (95% CI: 86%-93%), corresponding to having […] cases of false positives (10%).

Regarding `CC(=O)Oc1ccccc1C(=O)O` [Aspirin, salicylic acid (aspirin)], in assay [1] (14 days aspirin), the “Outcome: Normal (number of women)” value amounted to 26 Normal and the “Outcome: Preeclampsia (number of women)” value is reported as 24 Preeclampsia. Besides, in assay [1] (21 days aspirin), the “Outcome: Normal (number of women)” value was found to be 33 Normal and the “Outcome: Preeclampsia (number of women)” value turned out to be 18 Preeclampsia. Moreover, in assay [1] (aspirin for 2 or 3 weeks), the “Number of preeclampsia cases, treated vs. untreated groups” value was “significantly lower”. Besides, the “Therapeutic Effectiveness on PP13 release from placenta explants” value in assay [2] (applied with serum from a Normal Patient) is listed as 74%. In addition, in assay [2] (applied with serum from a Patient at high risk for preeclampsia), the “Therapeutic Effectiveness on PP13 release from placenta explants” value was 40%. Besides, in the assay on PP13 (14 days aspirin), the “Odds ratio (by modeling) for developing preeclampsia” value was 5.9, the “Odds ratio (by quartiles) for developing preeclampsia” value is 5.6, the “Frequency of 1st quartile cases” value is 20/50 and the “Frequency of 2nd quartile cases” value is 24/45. For the same molecule, in the assay with PP13 (14 days aspirin), the “Frequency of 3rd quartile cases” value is listed as 5/50. Besides, in the assay on PP13 (21 days aspirin), the “Odds ratio (by modeling) for developing preeclampsia” value is listed as 3.3, the “Odds ratio (by quartiles) for developing preeclampsia” value came out at 3.2, the “Frequency of 1st quartile cases” value was 14/50 and the “Frequency of 2nd quartile cases” value is 30/50. Further, the “Frequency of 3rd quartile cases” value with PP13 (21 days aspirin) is given as 5/50. Also, the “Numbers of patients in the 2nd and 3rd PP13 quartiles compared to the first quartile” value in the assay with PP13 (aspirin for 2 or 3 weeks) is given as “elevated significantly”.

Source of the values: US20080131867A1, “Method for Determining the Effectiveness of a Treatment for Preeclampsia” (priority 2006, published 2008).
